Broadly, the IC50 is the midpoint of a concentration-inhibition curve. Lower therefore signals higher potency.

The results in this text go back to patent US20090312335A1 (priority 2005, published 2009).

SMILES strings stand for the structures.

The experiment relates to HIV replication. Nature of the experiment: Inhibition of acute HIV infection with HeLa P4-2 cells, single cycle infectivity ("vertical") assay. In kind it is cell-based. Conditions: Human immunodeficiency virus 1, HeLaP4-2. An excerpt:
The inhibitory activity of the compounds of the present invention may be measured by assays known in the art. […] Preferred compounds have IC50 values of ≦1 micromolar in this integrase assay. […] 1992, 66, 2232 for measuring the inhibition of acute HIV infection with HeLa P4-2 cells in a single cycle infectivity assay.
An assay for measuring the inhibition of acute HIV infection with HeLa P4-2 cells in a single cycle infectivity assay (alternatively referred to as the “vertical” assay) was conducted in accordance with Joyce, J. G., et al., J. Biol. Chem., 2002, 277, 45811, Hazuda, D. J. et al., Science, 2000, 287, 646, and Kimpton, J. et al, J. Virol. 1992, 66, 2232.
On to `CN1CCn2cc(-c3nnc(Cc4ccc(F)cc4)[nH]3)c(O)c2C1=O` [Example 3], for which the IC50 is below 35 µM.
`CN1C[C@H](c2ccccc2)n2nc(-c3nnc(Cc4ccc(F)cc4)o3)c(O)c2C1=O` [Example 5, (7S)-2-[5-(4-Fluorobenzyl)-1,3,4-oxadiazol-2-yl]-3-hydroxy-5-methyl-7-phenyl-6,7-dihydropyrazolo[1,5a]pyrazin-4(5H)-one] yielded an IC50 below 35 µM.
The figure for `CN1C[C@H](c2ccccc2)n2nc(-c3nnc(Cc4ccc(F)cc4)s3)c(O)c2C1=O` [Example 4, (7S)-2-[5-(4-Fluorobenzyl)-1,3,4-thiadiazol-2-yl]-3-hydroxy-5-methyl-7-phenyl-6,7-dihydropyrazolo[1,5a]pyrazin-4(5H)-one] is below 35 µM; for `CN1CCn2cc(-c3nnc(Cc4ccc(F)cc4)o3)c(O)c2C1=O` [Example 2, 7-[5-(4-Fluorobenzyl)-1,3,4-oxadiazol-2-yl]-8-hydroxy-2-methyl-3,4-dihydropyrrolo[1,2-a]pyrazin-1(2H)-one] it is below 35 µM.
Under `CN1CCn2cc(-c3nnc(Cc4ccc(F)cc4)s3)c(O)c2C1=O` [Example 1, 7-[5-(4-Fluorobenzyl)-1,3,4-thiadiazol-2-yl]-8-hydroxy-2-methyl-3,4-dihydropyrrolo[1,2-a]pyrazin-1(2H)-one] stands below 35 µM.
